Laboratory results reported in US11771694B2, “Arylamide compounds for treatment and prevention of viral infections” (priority 2020, dated 2023).
Values after ≈ are worked out from the molar mass of the structure shown. Values joined by “and” are separate entries in the source; they are usually repeats but may differ in a detail not shown here. Equal values may be shown once. Read-outs that look alike come from different tables or passages of the source.

Columns and labels:
Providencia stuartii = test: Broth microdilution MIC; format: cell-based; conditions: 2-3 isolates/organism, read-out: MIC
Vero cells = conditions: 24 hours
SARS-CoV-2 [1] = conditions: Calu-3; 10 μM; 24 hpi
human PDE4B2 = human PDE4B2 (Homo sapiens, UniProt Q07343); test: PDE-Glo phosphodiesterase assay, PDE4B2; conditions: IC50, inhibition of human PDE4B2, 1 μM cAMP substrate
Citrobacter koseri = test: Broth microdilution MIC; format: cell-based; conditions: 2-3 isolates/organism, read-out: MIC
[2] = tested on: stationary phase cultures of MSSA and MRSA; test: Time-kill against stationary phase cultures of MSSA and MRSA; format: cell-based, Staph. aureus; conditions: stationary phase MSSA and MRSA; 2×MIC
human PDE3A = human PDE3A (Homo sapiens, UniProt Q14432); test: PDE-Glo phosphodiesterase assay, PDE3A; format: biochemical; conditions: 1 μM cAMP substrate; read-out: IC50, inhibition of human PDE3A
Staph. epidermidis = test: Broth microdilution MIC; format: cell-based; conditions: Staphylococcus epidermidis; Staph. epidermidis; 2-3 isolates/organism; read-out: MIC
Pseud. aeruginosa = test: Broth microdilution MIC; format: cell-based; conditions: Pseudomonas aeruginosa; Pseud. aeruginosa; 2-3 isolates/organism; read-out: MIC
Citrobacter fruendi = test: Broth microdilution MIC; format: cell-based; conditions: Citrobacter fruendi; 2-3 isolates/organism; read-out: MIC
Klebsiella pneumoniae = test: Broth microdilution MIC; format: cell-based; conditions: 2-3 isolates/organism, read-out: MIC
Acinetobacter spp. = test: Broth microdilution MIC; format: cell-based; conditions: 2-3 isolates/organism
[3] = tested on: LPS-induced MMP-9 release; test: LPS-induced MMP-9 release, NR8383 cells, ELISA; format: cell-based; conditions: Rattus norvegicus, 8-hour exposure, read-out: IC50, inhibition of LPS-induced MMP-9 release
in vitro = conditions: African green monkey
Strept. agalactiae = test: Broth microdilution MIC; format: cell-based; conditions: Streptococcus agalactiae; Strept. agalactiae; 2-3 isolates/organism; read-out: MIC
HCoV-NL63 = test: Virus yield reduction assay, HCoV-NL63 on Vero cells; format: cell-based; conditions: Human coronavirus NL63, 48 hours post-infection
Procedure: For these assays, brilacidin was included during viruses infection and post infection stages. The EC50 values were calculated from best-fit dose response curves with variable slope in Prism 8.

Staph. spp. coagulase- = test: Broth microdilution MIC; format: cell-based; conditions: Staph. spp. coagulase-; 2-3 isolates/organism; read-out: MIC
Entero. faecium (VRE) = test: Broth microdilution MIC; format: cell-based; conditions: Enterococcus faecium; Entero. faecium (VRE); 2-3 isolates/organism; read-out: MIC
[4] = tested on: human erythrocytes (RBCs)
[5] = tested on: Ulcerative Proctosigmoiditis/Ulcerative Proctitis (UP/UPS); test: Phase 2 study CTIX-BRI-206 in Ulcerative Proctosigmoiditis/Ulcerative Proctitis; format: in vivo, human
Description: Inflammatory biomarkers IL-1β and IL-6 were reduced in colonic tissue biopsies collected at Week 6 (Day 42) compared to those biopsies collected at baseline (FIG. 20, Panel B).

[6] = tested on: LPS-induced MCP-1 release; test: LPS-induced MCP-1 release, NR8383 cells, ELISA; format: cell-based; conditions: Rattus norvegicus, 8-hour exposure, read-out: IC50, inhibition of LPS-induced MCP-1 release
[7] = tested on: luciferase-expressing pseudotyped virus (rVSV) containing the SARS-CoV-2 spike protein; format: cell-based
Strept. viridians = test: Broth microdilution MIC; format: cell-based; conditions: Strept. viridians; 2-3 isolates/organism; read-out: MIC
[8] = tested on: embryonic mouse cell line (NIH/3T3)
Enterobacter cloacae = test: Broth microdilution MIC; format: cell-based; conditions: 2-3 isolates/organism, read-out: MIC
SARS-CoV-2 [9] = format: cell-based; conditions: Calu-3; MOI 0.05; 24 hpi
[10] = tested on: dextran sulfate sodium (DSS) induced colitis; test: Mouse DSS colitis model; format: in vivo, mice
[11] = tested on: LPS-induced CINC-3 release; test: LPS-induced CINC-3 release, NR8383 cells, ELISA; format: cell-based; conditions: Rattus norvegicus, 8-hour exposure, read-out: IC50, inhibition of LPS-induced CINC-3 release
[12] = tested on: SARS-CoV-2 (Washington strain 2019-nCoV/USA-WA1/2020); test: microbe, parasite or virus in culture; format: cell-based; conditions: Severe acute respiratory syndrome coronavirus 2, Vero
[13] = tested on: Acute Bacterial Skin and Skin Structure Infections (ABSSSI); test: Phase 2 trials in ABSSSI; format: in vivo, human; conditions: single dose and 3-day regimen, IV infusion; Phase 2b CTIX-BRI-204
Description: Further details on clinical success rates by baseline pathogen for the ABSSSI Phase 2b study are presented in FIG. 26 (blank cells=no participants presented with the specified baseline pathogen. EOT: End of Treatment. STFU: Short-Term Follow-Up).

SARS-CoV-2 [14] = test: SARS-CoV-2 testing in Caco-2 cells and primary lung fibroblasts; format: cell-based; conditions: Caco-2 cells and primary lung fibroblasts from human donors; data not shown
Klebsiella oxtoca = test: Broth microdilution MIC; format: cell-based; conditions: Klebsiella oxtoca; 2-3 isolates/organism; read-out: MIC
[15] = brilacidin 400 mg/kg, 5-ASA 50 mg/kg per rectum, vs DSS-treated control group, end of study

Sequence of human PDE4B2 (Q07343 1-564 isoform Q07343-2): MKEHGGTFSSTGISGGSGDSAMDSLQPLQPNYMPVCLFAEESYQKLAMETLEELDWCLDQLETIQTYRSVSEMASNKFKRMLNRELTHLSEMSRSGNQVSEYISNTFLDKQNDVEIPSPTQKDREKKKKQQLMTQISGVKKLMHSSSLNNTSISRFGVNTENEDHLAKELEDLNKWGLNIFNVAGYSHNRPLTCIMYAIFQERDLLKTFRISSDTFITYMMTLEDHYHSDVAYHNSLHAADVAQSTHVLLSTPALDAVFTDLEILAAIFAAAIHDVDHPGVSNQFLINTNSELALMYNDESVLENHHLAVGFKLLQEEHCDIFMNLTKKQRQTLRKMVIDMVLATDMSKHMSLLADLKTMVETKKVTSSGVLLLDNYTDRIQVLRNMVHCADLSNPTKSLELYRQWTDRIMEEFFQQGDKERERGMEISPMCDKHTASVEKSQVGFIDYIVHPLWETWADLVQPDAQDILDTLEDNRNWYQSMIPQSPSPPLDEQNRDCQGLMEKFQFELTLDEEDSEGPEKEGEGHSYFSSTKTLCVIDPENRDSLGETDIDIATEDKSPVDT
Sequence of human PDE3A (Q14432 whole entry): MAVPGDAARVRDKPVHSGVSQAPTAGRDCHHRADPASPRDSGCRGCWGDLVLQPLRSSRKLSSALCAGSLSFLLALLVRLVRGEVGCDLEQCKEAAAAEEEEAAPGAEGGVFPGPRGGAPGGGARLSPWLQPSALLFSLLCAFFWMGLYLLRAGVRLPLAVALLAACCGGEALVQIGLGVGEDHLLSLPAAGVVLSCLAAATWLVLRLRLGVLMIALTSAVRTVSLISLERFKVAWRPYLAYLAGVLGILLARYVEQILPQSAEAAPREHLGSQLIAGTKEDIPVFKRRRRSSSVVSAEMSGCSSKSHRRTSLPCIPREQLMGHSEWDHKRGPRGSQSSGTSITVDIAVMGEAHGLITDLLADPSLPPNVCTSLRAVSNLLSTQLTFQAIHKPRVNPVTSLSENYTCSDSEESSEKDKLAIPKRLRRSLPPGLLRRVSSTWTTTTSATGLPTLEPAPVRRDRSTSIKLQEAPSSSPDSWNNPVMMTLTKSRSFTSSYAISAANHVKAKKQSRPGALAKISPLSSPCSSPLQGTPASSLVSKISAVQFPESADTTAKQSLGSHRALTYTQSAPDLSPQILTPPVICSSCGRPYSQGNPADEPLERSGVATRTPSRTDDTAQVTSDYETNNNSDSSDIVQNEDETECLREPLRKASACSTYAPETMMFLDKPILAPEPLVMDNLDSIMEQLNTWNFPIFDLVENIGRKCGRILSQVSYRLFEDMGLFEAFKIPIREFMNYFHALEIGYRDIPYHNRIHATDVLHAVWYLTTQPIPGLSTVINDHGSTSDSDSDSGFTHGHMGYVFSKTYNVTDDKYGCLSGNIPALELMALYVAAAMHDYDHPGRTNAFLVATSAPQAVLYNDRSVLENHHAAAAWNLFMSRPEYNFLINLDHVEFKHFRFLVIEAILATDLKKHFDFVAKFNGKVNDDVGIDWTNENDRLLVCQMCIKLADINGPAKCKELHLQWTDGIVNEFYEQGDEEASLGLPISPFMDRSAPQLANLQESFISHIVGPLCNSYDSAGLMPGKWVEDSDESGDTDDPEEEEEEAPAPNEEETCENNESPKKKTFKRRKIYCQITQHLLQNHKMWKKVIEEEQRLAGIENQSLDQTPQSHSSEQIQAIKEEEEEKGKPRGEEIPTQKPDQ

With `N=C(N)NCCCCC(=O)Nc1cc(C(F)(F)F)cc(NC(=O)c2cc(C(=O)Nc3cc(C(F)(F)F)cc(NC(=O)CCCCNC(=N)N)c3OC3CCNC3)ncn2)c1OC1CCNC1` (stereo not shown) [brilacidin] the MIC (Providencia stuartii) was 16 to 64 µg/mL (≈ 17.1 to 68.3 µM), the “cell viability compared to the DMSO vehicle control” value (Vero cells; concentrations higher than 40 μM) was “dose-dependent, statistically significant decrease in cell viability” and the “cell viability compared to the DMSO vehicle control” value (Vero cells; up to 40 μM) was “did not affect cell viability”. For the same compound, the “decrease in the viral genomic copies” value (SARS-CoV-2 [1]) was 33%, the IC50 (human PDE4B2) was ~3000 nM and 3000 nM and the MIC (Citrobacter koseri) was 1 to 2 µg/mL (≈ 1.07 to 2.13 µM). The “time-kill at >10^3 Log10 Reductions” value [2] was ≤ 2 hours, the IC50 (human PDE3A) was ~1800 nM and 1800 nM and the MIC (Staph. epidermidis) was 0.25 to 0.5 µg/mL (≈ 0.267 to 0.534 µM). The MIC (Pseud. aeruginosa) was 32 µg/mL (≈ 34.2 µM), the MIC (Citrobacter fruendi) was 2 to 4 µg/mL (≈ 2.13 to 4.27 µM) and the “toxicity in Calu-3 cells” value (Calu-3 cells; 10 and 20 μM, 24 hours) was “nontoxic”. For the same compound, the “CC10 (90% viability)” value (Calu-3 cells; Calu-3, 24 hpt, Hill model fit) was 26800 nM, the MIC (Klebsiella pneumoniae) was 1 to 2 µg/mL (≈ 1.07 to 2.13 µM) and the MIC (Acinetobacter spp.) was 4 µg/mL (≈ 4.27 µM). It also gave an IC50 [3] of 2300 nM, a CC50 (in vitro) of 79500 ± 2420 nM and an MIC (Strept. agalactiae) of 2 µg/mL (≈ 2.13 µM). The EC50 (HCoV-NL63) was 2450 ± 52 nM, the MIC (Staph. spp. coagulase-) was 0.25 to 0.5 µg/mL (≈ 0.267 to 0.534 µM) and the MIC (Entero. faecium (VRE)) was 1 µg/mL (≈ 1.07 µM). The “Selectivity (EC50/MIC) RBCs” value [4] was 558, the “inflammatory biomarkers IL-1β and IL-6 in colonic tissue biopsies” value ([5]; Week 6 (Day 42) compared to baseline) was “reduced” and the “clinical remission (with Endoscopic response), subjects” value ([5]; each cohort (50 mg, 100 mg, 200 mg daily retention enema), after 6 weeks) was > 50%. The IC50 [6] was 750 nM, the “inhibition of pseudovirus (rVSV) attachment and entry” value [7] was “inhibited the pseudovirus at both concentrations tested in a comparable manner” and the MIC (Strept. viridians) was 2 to 8 µg/mL (≈ 2.13 to 8.54 µM). For the same compound, the “Selectivity (EC50/MIC) 3T3” value [8] was 430, the MIC (Enterobacter cloacae) was 0.5 to 4 µg/mL (≈ 0.534 to 4.27 µM) and the “inhibition of infectious titer, each drug alone” value (SARS-CoV-2 [9]) was “up to 90%”. The rectal bleeding ([10]; 400 mg/kg per rectum Days 7-11, by Day 11 vs DSS-treated control group) was “significant decrease”, the stool consistency ([10]; 400 mg/kg per rectum Days 7-11, vs DSS-treated control group) was “significantly more firm” and the “mean reduction in IL-1β in distal colon tissue” value [10, 15] was 27%. For the same compound, the “mean reduction in IL-6 in distal colon tissue” value [10, 15] was 40%, the IC50 [11] was 425 nM and the inhibition at 10 µM ([12]; read-out: inhibition of SARS-CoV-2 (plaque assay)) was 72%. The inhibition at 10 µM ([12]; read-out: inhibition of infectious viral titer) was 53%, the “efficacy (early clinical response)” value [13] was “comparable to that a 7-day regimen of daptomycin” and the “inhibitory properties in ACE2 positive cell lines” value (SARS-CoV-2 [14]) was “supported brilacidin's inhibitory properties”. For the same compound, the MIC (Klebsiella oxtoca) was 2 to 8 µg/mL (≈ 2.13 to 8.54 µM).
